# Laboratory results from patent US8143254B2, “Methods for modulating ion channels” (Cornell Research Foundation, Inc., priority 2005, dated 2012).
# Target: T1, Kv2.1 channels expressed in CHO cells (Rattus norvegicus, UniProt P15387)
# T1 construct: expressed in transfected cells; host or cells: CHO cells (transient, co-transfected with GFP plasmid)
# T1 sequence (P15387 1-857): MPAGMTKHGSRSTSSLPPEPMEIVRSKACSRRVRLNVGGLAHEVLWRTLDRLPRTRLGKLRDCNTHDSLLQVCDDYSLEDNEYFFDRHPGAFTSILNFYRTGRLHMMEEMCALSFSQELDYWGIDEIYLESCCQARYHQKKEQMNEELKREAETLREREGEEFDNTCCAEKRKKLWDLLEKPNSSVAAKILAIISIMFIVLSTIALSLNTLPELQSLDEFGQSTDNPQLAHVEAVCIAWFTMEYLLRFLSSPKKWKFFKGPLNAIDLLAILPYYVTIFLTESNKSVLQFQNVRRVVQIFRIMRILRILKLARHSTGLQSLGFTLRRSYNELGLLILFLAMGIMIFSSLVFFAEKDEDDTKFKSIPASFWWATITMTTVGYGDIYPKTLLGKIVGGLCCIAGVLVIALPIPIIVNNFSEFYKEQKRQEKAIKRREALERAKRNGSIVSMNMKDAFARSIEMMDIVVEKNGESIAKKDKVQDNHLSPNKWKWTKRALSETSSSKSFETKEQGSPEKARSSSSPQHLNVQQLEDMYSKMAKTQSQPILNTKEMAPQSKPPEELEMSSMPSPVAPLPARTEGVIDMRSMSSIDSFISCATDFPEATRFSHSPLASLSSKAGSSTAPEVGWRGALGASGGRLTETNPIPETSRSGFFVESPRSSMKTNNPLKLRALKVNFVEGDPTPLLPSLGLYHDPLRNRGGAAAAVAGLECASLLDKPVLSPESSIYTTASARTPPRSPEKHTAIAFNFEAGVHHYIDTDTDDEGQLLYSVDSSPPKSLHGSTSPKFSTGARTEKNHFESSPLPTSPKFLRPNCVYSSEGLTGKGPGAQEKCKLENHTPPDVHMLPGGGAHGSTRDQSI
# Test: Whole-cell voltage clamp of CHO cells transfected with Kv2.1
# Assay type: cell-based
# Source text: Kv2.1 mutants were constructed using the QuickChange Multi Site-Directed Mutagenesis Kit (Stratagene, La Jolla, Calif.). Mutant Kv2.1 genes (in the pGA1 oocyte expression vector for oocyte expression) were sequenced in their entirety to confirm appropriate mutations and check for inadvertent mutations, and then subcloned into a wild-type pGA1 backbone. For oocyte expression, Kv3.4 was in pBF1, Kv4.2 was in pRAT. cRNA transcripts were produced from SacII-linearized (Kv2.1), Mlullinearized (Kv3.4) and Not1-linearized (Kv4.2) DNA templates using the T3 (Kv2.1), SP6 (Kv3.4) and T7 (Kv4.2) mMessage mMachine kits (Ambion, Austin, Tex.). cRNA was quantified by spectrophotometry and its size integrity verified by gel electophoresis. Defolliculated stage V and VI Xenopus laevis oocytes (purchased from Nasco, Grand Island, N.Y.) were injected with 5 ng of cRNA encoding Kv2.1, Kv3.4 or Kv4.2. Chinese Hamster Ovary (CHO) cells were transfected with 0.25 μg Kv2.1 cDNA, 2 μg blank plasmid and 2 μg Green fluorescent Protein in pBOB using Supetfect transfection reagent (Qiagen) 24 hours before whole-cell voltage clamp studies.
# For whole-cell voltage clamp studies of CHO cells, bath solution was (in mM): 135 NaCl, 5 KCl, 1.2 MgCl2, 5 HEPES, 2.5 CaCl2, and 10 D-glucose, pH 7.4. Pipettes were 3-5 MQ resistance when filled with intracellular solution containing (in mM): 10 NaCl, 117 KCl, 2 MgCl2, 11 HEPES, 11 EGTA, and 1 CaCl2, pH 7.2. For experiments with extracellular drug application, cells were held at −80 mV and subjected to 2 sec test pulses […] every 30 s. Whole-cell patch clamp recordings were performed at 22-25° C. using an IX50 inverted microscope equipped with epifluorescence optics for GFP detection (Olympus), a Multiclamp 700 A Amplifier, a Digidata 1300 Analogue/Digital converter and pClamp9 software (Axon Instruments). Leak and liquid junction potentials (<4 mV) were not compensated for when generating current-voltage relationships. For intracellular drug application, the tip of the recording electrode was first filled with drug-free intracellular solution, the electrode was then back-filled with intracellular solution containing TEA (20 mM), TA279 (5 mM) or JC638.2α (0.5 mM). Cells were held at −80 mV and subjected to 2 sec test pulses from −60 mV to +60 mV in 10 mV increments, followed by a 1 sec tail pulse to −30 mV. After an initial recording which we denoted time 0, a second recording was performed after 5 minutes.
# Data analysis: Current-voltage relationships were obtained by measuring peak current during depolarizing pulses. Inhibition constants for DABCO blockers were calculated after generating a dose response curve by fitting with a logistic dose-response function y=A2+[A1−A2/1+(x/x0)^p], where A1 is the maximum response plateau, A2 is the minimum response plateau, x is drug concentrator, x0 is the IC50, and p the Hill slope. Data analysis was performed using CLAMPFIT 9 (Axon Instruments, Foster City, Calif.) and tabulated in Excel 5.0. Graphs were generated using Origin 6.1. Data are expressed as mean±SEM, with n specifying the number of independent experiments. Statistical significance was assessed by one-way ANOVA with p<0.05 being indicative of significance.
SMILES,"block on intracellular application (0.5 mM via recording electrode, 0 mV)",sensitivity of Kv2.1 in CHO cells relative to Kv2.1 in oocytes [fold],"block on intracellular application (5 μM via recording electrode, 0 mV, at 0 or 5 minutes)","inhibition at 0.5 µM (CHO, extracellular application, 500 nM, 0 mV, n=3, read-out: mean current inhibition) [%]"
"c1cc(C[N+]23CCN(CC2)CC3)ccc1C[N+]12CCN(CC1)CC2 [JC638.2α, α,α′-[bis(4-aza-1-azoniabicyclo[2.2.2]octanyl)]p-xylene]",no significant block,,,
"CCCCCCCCCCCCCCCC[N+]12CCN(CC1)CC2 [TA279, 1-aza-4-azonia-4-hexadecylbicyclo[2.2.2]octane]",,~4,no significant block,59 ± 4
